Here are results for 1 compound from US20240245631A1, “METHODS OF TREATING LENNOX-GASTAUT SYNDROME USING FENFLURAMINE” (ZOGENIX INTERNATIONAL LIMITED, priority 2015, published 2024).

Data set [1] deals with Lennox-Gastaut patients. The data set is described as follows: Open-label Phase 2 add-on study of low-dose fenfluramine in Lennox-Gastaut patients. The format is in vivo, human. How it is done: The efficacy of fenfluramine as an add-on treatments in Lennox-Gastaut patients is studied in a Phase 2 Clinical Trial. The study protocol is described and preliminary results are presented here.
An open-label, non-placebo controlled add-on study was designed to assess the efficacy and safety of low-dose add-on fenfluramine across a range of fenfluramine doses (0.2, 0.4, 0.8 mg/kg/day, to a maximum of 30 mg/day). The trial was conducted over a 20 week period, with responders eligible for follow-on treatment, with follow-up appointments at three month intervals.
Patients were recruited from childhood epilepsy clinics in Leuven and Antwerp, Belgium, and selected for inclusion in the study according to criteria comprising a combination of age, physical and psychological characteristics, and resistance to treatment with conventional therapies. Details of selection criteria are provided below.
Study duration is 20 weeks, ending at week 20 after inclusion of 20 patients, i.e., 20 weeks following the enrollment of the 20th patient. Patients who respond to treatment are enrolled in a follow-on study and assessed on an ongoing basis.
Patients are examined during six clinical visits (V1 through V6) scheduled at four week intervals, ending with V6 at week 20. […] At each visit, endpoints and safety criteria are assessed, and dosages adjusted as necessary.
Add-on treatment is begun at V2. […] Endpoints and safety criteria are assessed (seizure counting, adverse effects, pregnancy testing, and quality of life indicators (CGI, sleep scale)). […]
At each of V3-V5, endpoints and safety criteria are again assessed. […]
At V6, endpoints and safety criteria are again assessed. […]
Fenfluramine: Oral fenfluramine solution (2.5 mg/ml or 5 mg/ml) is provided by Zogenix Pharma. […] Patient compliance is assessed by control of oral solution quantity at each visit and collection of seizure diary with notification of drug intake. […]
Safety assessment: Treatment safety is assessed using a combination of physical examination, blood testing, cardiac evaluation, and adverse event reporting. […]

Data set [2] deals with children with refractory epilepsy. The conditions noted are these: 0.5 to 1 mg/kg/day; cited from earlier work.
For data set [3], the system named is self-induced photosensitive seizures. The settings on record: four cases; cited from earlier work.
For data set [4], the system named is child suffering pattern sensitivity-induced seizures. The settings on record: single case, resistant to anticonvulsive treatment; cited from earlier work.

For the compound `CCNC(C)Cc1cccc(C(F)(F)F)c1` (stereo not drawn) [fenfluramine, 3-trifluoromethyl-N-ethylamphetamine], the total seizure frequency entry in data set [1] (3 patients receiving 0.2 mg/kg/day, add-on, interim results) is listed as “significant decreases in total seizure frequency”. The serious side effects result in data set [1] (9 patients receiving add-on fenfluramine, interim results) is reported as “None of the 9 patients receiving fenfluramine reported serious side effects”. Besides, in data set [1] (low-dose add-on treatment, early interim data), the “seizure frequency (overall interim conclusion)” value is “effective in reducing seizure frequency”. In addition, the “number of seizures experienced by the patients” value in data set [2] is on record as “reduction in the number of seizures”. In data set [3], the “response of self-induced photosensitive seizures” value was “responded to treatment with fenfluramine”. For the same compound, the self-induced seizures entry in data set [4] was “successfully terminated these self-induced seizures”.
